Results: patent US8999930B2, “Soluble hydrophobic core carrier compositions for delivery of therapeutic agents, methods of making and using the same” (PharmaIN Corporation, priority 2008, dated 2015)
pKd: −log10 of the molar value. Like-named read-outs stand apart in the source and are kept apart here. Where a SMILES comes first, the peptide text is derived from it. Bridges are numbered along the chain shown (N, C = ends).

Experiment: Binding of load molecules to 20PLPEG555C18 carrier (100 kDa filtration, free load by HPLC, Scatchard plot)
Details: for binding affinity to carrier, in words: strong = Kd less than 100 uM, carrier 20 kDa polylysine, 55% 5 kDa MPEGsuccinate, remainder stearic acid
[1] = Kd to the 20PLPRG555C18, Table 4, read-out: Dissociation Constant (Kd)

Method: Load molecules of various concentrations were added to the tubes so that the corresponding weight of load molecules will be between 2 to 30% of the weight of the carrier. To each tube, 25 ul of 10× Phosphate buffered saline was added and the total volume of the solution was made up to 250 ul. The solutions were incubated for 2 hours, followed by filtration through a 100 kDa molecular weight cut-off filter made up of regenerated cellulose (Microcon Ultracell YM-100; Millipore, Bedford, Mass.). The free unbound load molecules in the filtrate were analyzed by reverse phase HPLC using the conditions described above to generate Table 3. The total amount of load molecule loaded or the control is represented by the filtrate of the solution without the carrier. The amount of load molecules bound to the carrier is represented by the difference in the amount of load molecules between the filtrate without the carrier and the filtrate with the carrier. Prior to this analysis, the background filter binding was determined and accounted for whenever significant filter binding was found.

pKd [1]	pKd (Ten mg/ml (30 uM) of Carrier loaded with various concentration of doxorubicin, read-out: apparent Kd (Scatchard plot))	binding affinity to carrier, in words	pKd (Ten mg/ml (30 uM) of Carrier, read-out: Kd (Scatchard plot))	pKd (33 mg/ml (10 uM) of Carrier, read-out: Kd (Scatchard plot))	binding affinity to carrier, in words (listed as VIP)	Compound
< 4.00	3.50	did not bind with strong affinity	–	–	–	COc1cccc2c1C(=O)c1c(O)c3c(c(O)c1C2=O)C[C@@](O)(C(=O)CO)C[C@@H]3O[C@H]1C[C@H](N)[C@H](O)[C@H](C)O1 [Doxorubicin, reference compound]
< 4.00	–	does not bind hGH with strong affinity	–	–	–	Human Growth Hormone: recombinant human growth hormone (26 kDa), load molecule
> 3.05	–	binds IAPP with strong affinity	6.05	–	–	Islet Amyloid Polypeptide: Islet Amyloid Polypeptide (IAPP or Amylin; 3.6 kDa), load molecule (KCNTATCATQRLANFLVHSSNNFGAILSSTNVGSNTY; Islet amyloid polypeptide; UniProt P10997 34-70, looked up)
> 6.30	–	–	–	–	–	Glucagon Like Peptide 2: Glucagon Like Peptide 2 (GLP-2; 3 kDa), load molecule
> 6.10	–	binds Leptin with strong affinity	–	6.15	–	Leptin: Leptin (16 kDa), load molecule
–	–	high affinity	–	–	binds VIP with strong affinity	Vasoactive Intestinal Peptide: Vasoactive Intestinal Peptide (VIP), load molecule

Compound	pKd [1]	pKd (Ten mg/ml (30 uM) of Carrier loaded with various concentration of doxorubicin, read-out: apparent Kd (Scatchard plot))	binding affinity to carrier, in words	pKd (Ten mg/ml (30 uM) of Carrier, read-out: Kd (Scatchard plot))	pKd (33 mg/ml (10 uM) of Carrier, read-out: Kd (Scatchard plot))	binding affinity to carrier, in words (listed as VIP)
NCCCC[C@H](NC(=O)[C@@H]1CCCN1C(=O)[C@@H]1CSSC[C@H](NC(=O)CNC(=O)CNC(=O)CN)C(=O)N[C@@H](Cc2ccc(O)cc2)C(=O)N[C@@H](Cc2ccccc2)C(=O)N[C@@H](CCC(N)=O)C(=O)N[C@@H](CC(N)=O)C(=O)N1)C(=O)NCC(N)=O [Terlipressin, reference compound] (H-GGGCYFQNCPKG-NH2; disulfide 4-9)	< 4.00	–	does not bind Terlipressin with strong affinity	–	–	–
